Ends that are not written are not given here. Peptide text beside a SMILES is read from it.
Columns and labels:
[1] = system: IgA-α1AT complex; test: HPLC analysis of in vitro dissociation of purified IgA-α1AT complex; type: biochemical, human; details: for HPLC minimum: Table 5, minimum concentration giving complex : free IgA ratio at 20% (base-line 14%), >500µM = no complex dissociation at highest concentration tested; for activity: comment in words on Tables 3-5, assay not given, fits the HPLC values
Method: The ability of the peptides of the invention to dissociate purified IgA-α1AT complex in vitro was tested as described below. The anti-rheumatic drug D-penicillamine and other synthetic peptides were used as controls. […] The sample was monitored at wavelength 206nm at a flow rate of 1ml/minute with phosphate buffer (0.1M) pH 7.1. […] They represent the ability of the peptides to dissociate the IgA-α1AT complex in vitro. In these experiments, the base-lines level comprises a complex : free IgA ratio of 14% . The minimum concentration of peptide taken to produce a positive dissociation effect is that which results in a complex: free IgA ratio at 20%. In the results tables, all the peptide values are expressed in µMoles.

[2] = system: alternative complement (C3) pathway; test: Inhibition of C3-activation: preventing IgA-α1AT complex from activating the alternative complement pathway, rabbit erythrocyte haemolysis read-out; type: biochemical, human; details: Table 5; minimum concentration needed to prevent C3 activation
[3] = system: mouse macrophage cell line (PU 518); test: Macrophage inhibition assay: IgA-α1AT complex-stimulated release of lysosomal enzymes; type: cell-based
Method: A mouse macrophage cell line (PU 518) was stimulated to release lysosomal enzymes by the addition of purified human IgA-α1AT complex. The degree to which this release was then inhibited by the peptides or other drugs was investigated, with the degree of inhibition being indicative of activity; the concentration of peptide or other test drugs giving 50% inhibition being recorded. Briefly the method was as follows:
25µl of peptide or drug was double diluted in […] + 10% foetal calf serum (FCS) in a sterile tissue culture 96 well plate. 25µl of IgA-α1AT complex in RPMI 1640 +10% FCS at about 0.2mg/ml was then added to all wells. 50µl of cells at a concentration of 2 x 10^6 cells/ml in RPMI 1640 + 10% FCS was then added to each well.
Control wells of cells alone and cells + IgA-α1AT complex were also prepared. The plate was then gently mixed and incubated overnight (16hr) at 37°C in a 4% CO2 atmosphere. Plates were then centrifuged at 1200 rpm for 10 minutes in a bench top centrifuge.
40µl of supernatant was then taken from each well and added to a 96 well polystyrene assay plate, to which was added 40µl of 160mM acetate buffer (pH 4.3) containing 2mM phenolphthalein-β-D-glucuronic acid. To obtain a standard curve, dilutions of phenolphthalein in acetate buffer from 100-5µg/ml were also added to separate wells in the assay plate.
The plates were then incubated at 37°C for 4 hours before 150µl of 0.2M glycine/NaOH buffer (pH 10.6) containing 0.2M NaCl was added to stop the reaction.
Plates were then shaken for 3 minutes before the optical density at 570nm was read on a plate reader, and the amount of β-D-glucuronic acid released from the cells calculated. The concentration of peptide or drug giving 50% inhibition of release was then noted.
The results for the macrophage inhibition assays are expressed as the concentration needed to prevent 50% release of β-glucoromidase.

[4] = system: alternative complement (C3) pathway; test: Inhibition of C3-activation: preventing IgA-α1AT complex from activating the alternative complement pathway, rabbit erythrocyte haemolysis read-out; type: biochemical, human
Method: Various peptides were tested for their ability to prevent the IgA-α1AT complex from activating the alternative complement (C3) pathway.
The method of measuring the capacity to activate the alternative complement pathway by the non-immune IgA-α1AT complex and the subsequent inhibition of this activation by anti-rheumatic peptides is described below.
This method was based on the method described by Riches and Stanworth, Immunology Letters, 1980, 1, 363,366, with modification to miniaturise it thus allowing the assay to be carried out on microtitre plates.
The initial observation by Platts-Mills and Ishizaka (J Immunol. (1974) 113, 348,358) that low dilutions of fresh normal human serum, from which calcium had been removed by chelation with 10mM EGTA to block the classical complement pathway, caused greater than 90% haemolysis of unsensitised rabbit erythrocytes when incubated at 37°C was employed in this assay.
The non-immune complex IgA-α1AT had been shown in the past to be the only known soluble complex to activate the alternative pathway complement and […] of the rabbit erythrocytes. This inhibition required biologically active complex.
The buffers solutions required in this assay were (a) Total lysis buffer (1% Triton100 in ultra pure water), (b) Alternative pathway complement fixation diluent (APCFD) which was:- • 83 volumes CFD, DH 7.2 (1 oxoid tablet: 100ml UPW) • 10 volumes 0.1M EGTA pH 7.2 • 7 volumes MgCl2 pH 7.2
Blood was obtained by venipuncture from a healthy human individual. The blood was allowed to clot for 1 hour at room temperature and then stored overnight at 4°C. The serum was removed and stored at -70°C in lml aliquots. For use, the serum was defrosted and 100µl of 0.1m EGTA pH 7.2 and 70µl O.lm MgCl2 pH 7.2 was added.
Rabbit red blood cells (RBC) were obtained by venipuncture of a healthy rabbit and collected into 0.1M citrate buffer pH 6.2. The RBC were washed 3 times in citrate buffer and the cells were stored in this buffer which was changed every week. It was possible to store cells in this way for 3 weeks. Peptides
The peptides were synthesised as described in Example 1 and made up in UPW to lmM. They were kept frozen at -70°C prior to use.
This was prepared as previously described in Example 2. It was kept frozen in small aliquots prior to use.
Using a round bottomed welled flexible microtitre plate 100µl neat serum (with added EGTA and MgCl2) was added to the first wells in duplicate. This was double diluted out, with APCFD to give a volume of 50µl well. 8 test wells (+ duplicates) were sufficient. 8 wells were prepared as a positive control - (100µl 1% Triton/UPW). 8 wells were prepared as a negative control - (100µl APCFD (Blank)).
50µl of APCFD was added to the test wells and 50µl of 1% rabbit RBC was added to all wells. The plate was then incubated at 37°C for 30 minutes and then centrifuged for 10 minutes at 2000 rpm.
75µl of the supernatant was carefully removed and plated onto a flat bottom welled microtitre plate. The plates were then read at 410nm interference, 690nm reference. The zero or blank value was calculated as the mean value of negative control wells and using the mean of the positive control wells, the percentage lysis for serum dilutions was calculated. In future assays the serum dilution in which lysis was approx. 80% of Rb RBC was used. This was usually in the range 1:4 - 1:6 dilution (ie. lml serum : 4ml APCFD - 6ml APCFD).
A 1:1 dilution of IgA-α1AT complex was made with twice concentrated APCFD. 100µl of this 1:1 dilution of complex was added to the first wells in duplicate. This was double diluted out with APCFD to give 50 µl per well. 50µl of the predetermined dilution of serum (see (i) above) was added to each well. Positive and negative control wells as described in (a) above and wells containing serum alone were used as controls. The plates were incubated at 37°C for 30 minutes and then centrifuged at 2000 rpm for 1 minute. […]

[5] = Table 3, minimum peptide concentration giving complex : free IgA ratio at 20% (base-line 14%), 90 minutes at 37°C
[6] = Table 3, minimum concentration of peptide needed to prevent C3 activation
[7] = Table 4, minimum peptide concentration giving complex : free IgA ratio at 20% (base-line 14%), 90 minutes at 37°C
[8] = Table 4, minimum concentration of peptide needed to prevent C3 activation
[9] = Table 5, minimum concentration needed to prevent C3 activation
[10] = Table 3; concentration needed to prevent 50% release of β-glucoromidase; 16hr incubation

N[C@@H](CS)C(=O)O [Cysteine]
HPLC minimum ([1]; 90 minutes at 37°C): 250 µM | C' minimum [2]: 16 µM | IC50 ([3]; Table 5, head prints no unit, b70 says all values of the results tables are in µMoles, concentration needed to prevent 50% release of β-glucoromidase): 500 µM

N[C@@H](CCC(=O)N[C@@H](CS)C(=O)NCC(=O)O)C(=O)O [Glutathione]
HPLC minimum ([1]; 90 minutes at 37°C): 500 µM | activity [1]: relatively inactive | C' minimum [2]: 31 µM

CC(=O)N[C@@H](CS)C(=O)O [N-acetyl Cysteine]
HPLC minimum ([1]; 90 minutes at 37°C): 500 µM | activity [1]: relatively inactive | C' minimum [2]: 4 µM

NCCCC[C@H](NC(=O)[C@H](CCCCN)NC(=O)[C@@H](N)CS)C(N)=O [Peptide 114, CKKnh2] (H-Cys-Lys-Lys-NH2)
HPLC% minimum ([1]; Table 2, minimum peptide concentration giving complex : free IgA ratio at 20% (base-line 14%), 90 minutes at 37°C): 125 µM | C' minimum ([4]; Table 2, minimum concentration of peptide needed to prevent C3 activation): >1250 µM

NCCCC[C@H](NC(=O)[C@@H](N)CS)C(N)=O [Peptide 115, CKnh2, reference compound] (H-Cys-Lys-NH2)
HPLC minimum ([1]; 90 minutes at 37°C): 500 µM | activity [1]: substantially less active

NCCCC[C@H](NC(=O)[C@H](CCCCN)NC(=O)[C@H](CS)NC(=O)[C@@H](N)Cc1c[nH]cn1)C(N)=O [Peptide 132, HCKKnh2] (H-HCKK-NH2)
HPLC % ([1]; Table 1, minimum peptide concentration giving complex : free IgA ratio at 20% (base-line 14%), 90 minutes at 37°C): 10 µM | IC50 ([3]; Table 1; concentration needed to prevent 50% release of β-glucoromidase; 16hr incubation): 60 µM | C' ([4]; Table 1, minimum concentration of peptide needed to prevent C3 activation): 16 µM

C[C@@H](N)C(=O)N[C@@H](Cc1c[nH]cn1)C(=O)N[C@@H](CS)C(=O)N[C@@H](CCCCN)C(=O)N[C@@H](CCCCN)C(N)=O [Peptide 205, dAHCKKnh2] (HELM PEPTIDE1{[dA].H.C.K.K.[am]}$$$$V2.0)
HPLC [1, 5]: 10 µM | C' [4, 6]: 1.95 µM

C[C@@H](NC(=O)[C@H](CCCCN)NC(=O)[C@H](CCCCN)NC(=O)[C@H](CS)NC(=O)[C@@H](N)Cc1c[nH]cn1)C(N)=O [Peptide 206, HCKKdAnh2] (HELM PEPTIDE1{H.C.K.K.[dA].[am]}$$$$V2.0)
HPLC [1, 7]: 50 µM | C' [4, 8]: 31.3 µM

C[C@@H](N)C(=O)N[C@@H](Cc1c[nH]cn1)C(=O)N[C@@H](CS)C(=O)N[C@@H](CCCCN)C(=O)N[C@@H](CCCCN)C(=O)N[C@H](C)C(N)=O [Peptide 210, dAHCKKdAnh2, reference compound] (HELM PEPTIDE1{[dA].H.C.K.K.[dA].[am]}$$$$V2.0)
HPLC minimum ([1]; 90 minutes at 37°C): 10 µM | C' minimum [4, 9]: 3.9 µM

DGGHCKK-NH2 [Peptide 118, DGGHCKKnh2]
HPLC [1, 5]: 50 µM

DGHCKK-NH2 [Peptide 119, DGHCKKnh2]
HPLC [1, 5]: 10 µM

DHCKK-NH2 [Peptide 113, DHCKKnh2]
HPLC [1, 5]: 10 µM | IC50 [3, 10]: 70 µM | C' [4, 6]: 78 µM

EGHCKK-NH2 [Peptide 155, EGHCKKnh2]
HPLC [1, 5]: 5 µM | IC50 [3, 10]: 60 µM | C' [4, 6]: <2 µM

EHCKK-NH2 [Peptide 154, EHCKKnh2]
HPLC [1, 5]: 5 µM | C' [4, 6]: <2 µM

HCCGKnh2 [Peptide 147, reference compound]
HPLC minimum ([1]; 90 minutes at 37°C): 10 µM | IC50 ([3]; Table 5; head prints no unit, b70 says all values of the results tables are in µMoles; concentration needed to prevent 50% release of β-glucoromidase): 250 µM | C' minimum [4, 9]: 32 µM

HCKKD-NH2 [Peptide 120, HCKKDnh2]
HPLC [1, 7]: 50 µM | IC50 ([3]; Table 4; concentration needed to prevent 50% release of β-glucoromidase; 16hr incubation): 25 µM | C' [4, 8]: 62 µM

Reference: EP0614464B1, “PEPTIDES AND ANTIBODIES FOR TREATMENT OF RHEUMATOID ARTHRITIS” (PEPTIDE THERAPEUTICS LIMITED, priority 1991, dated 1993)
